Laboratory results: patent USRE39114E1, “Expression of sucrose phosphorylase in plants” (Monsanto Technology LLC, priority 1995, dated 2006)

Key:
[1] = molecular target: T1, Leuconostoc mesenteroides sucrose phosphorylase (Spl, L. mesenteroides SP), wild type, gene spl SEQ ID NO:6 (Leuconostoc mesenteroides, UniProt Q59495); assay: Kinetic analysis of sucrose phosphorylase Spl (continuous coupled spectrophotometric assay); assay type: biochemical; settings: 25° C., pH 7.0, read-out: Km(Pi)
T1 construct: fragment containing the spl gene, encoding the Leuconostoc mesenteroides sucrose phosphorylase enzyme; made in house; host or cells: E. coli BL21 (DE3)
T1 sequence (Q59495 1-490): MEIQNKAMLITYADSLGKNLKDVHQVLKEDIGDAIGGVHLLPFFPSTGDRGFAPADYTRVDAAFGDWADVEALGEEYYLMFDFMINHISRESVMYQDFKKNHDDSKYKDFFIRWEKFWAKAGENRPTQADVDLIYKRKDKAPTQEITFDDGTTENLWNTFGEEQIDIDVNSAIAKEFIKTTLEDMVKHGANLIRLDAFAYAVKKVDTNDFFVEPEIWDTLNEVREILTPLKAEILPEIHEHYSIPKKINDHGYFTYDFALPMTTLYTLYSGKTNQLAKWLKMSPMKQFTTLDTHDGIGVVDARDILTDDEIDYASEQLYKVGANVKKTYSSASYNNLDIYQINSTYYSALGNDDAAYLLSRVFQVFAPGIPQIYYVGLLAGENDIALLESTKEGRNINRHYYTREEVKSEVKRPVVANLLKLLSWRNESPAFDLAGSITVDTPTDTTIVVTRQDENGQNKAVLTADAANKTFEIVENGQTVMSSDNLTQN
From the text: (§2) In order to evaluate the kinetic properties of two sucrose phosphorylase enzymes, the sucrose phosphorylase genes from Streptococcus mutans and Leuconostoc mesenteroides were separately cloned into pET15 expression vectors so that they could be overexpressed in E. coli.
(§3) For the purification of sucrose phosphorylase (Spl or GtfA), colonies of cells containing the correct plasmid construct were picked and used to grow liquid cultures (under Ampicillin selection), induced with IPTG (all purification steps were conducted at 4° C.). After growing an induced cell culture, the bacterial cell pellet was spun down and suspended in Buffer A (50 mM Tris-HCl, pH 7.5, 1 mM EDTA, 5% glycerol and 40 μl/ml protease inhibitor cocktail, purchased from Boehringer Mannheim Cat.#1-697-498)and cells were lysed using a French Press. The cell lysate was clarified by centrifugation at 15,000 rpm for 10 minutes. Ammonium sulfate was added to the supernatant to reach 30% saturation, and the resultant mixture was then applied onto a phenyl-Sepharose 4B column which was pre-equilibrated with Buffer B (10 mM Tris-HCl, pH 8.0, 1 mM DTT and 1 mM EDTA) plus 20% (w/v) ammonium sulfate. […] Combined proteins were concentrated by precipitation with 70% saturation of ammonium sulfate followed by resuspension of the protein pellet in a small volume (2 or 4 ml) of Buffer C (10 mM Tris-HCl, 1 mM EDTA and 10% Glycerol). The sample was dialyzed in 2 liters of Buffer C two to three times (about 2 h for each) to completely remove ammonium sulfate prior to further purification. The dialyzed sample was injected into a Mono Q column which was pre-equilibrated with Buffer C. The sucrose phosphorylase was eluted from the column with a linear gradient of NaCl from 0 to 0.4 M in Buffer C.

[2] = molecular target: Leuconostoc mesenteroides sucrose phosphorylase (Spl), gene spl SEQ ID NO:6 (Leuconostoc mesenteroides, UniProt Q59495); settings: 50 mM Pi, 100 mM sucrose, 35° C., pH 7.0
From the text: (§1) To further characterize the sucrose phosphorylases from S. mutans and L. mesenteroides, plasmid constructs containing the spl or the gtfA genes were made for protoplast transformation. A 1461 bp NcoI/BamHI fragment, containing the gtfA gene was isolated by restriction digestion, gel purified, and ligated to a 4646 bp BamHI/NcoI vector fragment containing the enhanced 35S promoter (e35S; Kay et al., 1987), the HSP70 intron (U.S. Pat. No. 5,593,874), the Nopaline synthase 3′ region (Fraley et al., 1983), and a pUC vector derived backbone. A vector was thus created, containing the expression cassette [p-e35S/HSP70/gtfA/NOS3′]. After ligation, the plasmid constructs were transformed into competent DH5α cells, and the transformed cells were plated out on Ampicillin-containing medium. From the colonies that were formed, positive clones were identified by restriction digest. In a similar experiment a 1491bp NcoI/BamHI fragment, containing the spl gene, was isolated by restriction digestion, gel purified, and ligated to the same 4646bp BamHI/NcoI vector fragment (described above). After ligation, transformation of competent cells, and identification of positive clones, the resulting plasmid constructs were used for corn leaf protoplast transformation. Corn leaf protoplast transformation was performed essentially as described by Sheen J., 1991, with some modifications to the protocol.

[3] = molecular target: Streptococcus mutans sucrose phosphorylase (GtfA), gene gtfA SEQ ID NO:5 (Streptococcus mutans serotype c, UniProt P10249); settings: 50 mM Pi, 100 mM sucrose, 35° C., pH 7.0
From the text: as §1

[4] = molecular target: T2, Streptococcus mutans sucrose phosphorylase (GtfA, S. mutans SP), wild type, gene gtfA SEQ ID NO:5 (Streptococcus mutans serotype c, UniProt P10249); settings: ratio to L. mesenteroides enzyme
Method: (§4) The assay reaction mixture (1 ml final volume) contained 50 mM Hepes-NaOH pH 7.0, 50 mM sucrose, 5 mM MgCl2, 1 mM NADP, 20 mM Kpi monobasic pH 7.0 (50 mM for GtfA), 8 IU phosphoglucomutase, 2 IU glucose-6-phosphate dehydrogenase and appropriate amounts of Spl or GtfA. Production of NADPH was monitored spectrophotometrically at 340 nm. One unit of Spl or GtfA activity was defined as the amount of the enzyme which caused the reduction of 1 μmol of NADP per minute under the above conditions. A control reaction in which inorganic phosphate was omitted from the reaction mixture was always conducted for each Spl or GtfA assay.

[5] = test system: sucrose phosphorylase (microbial); settings: general statement, no method given; cited from earlier work
[6] = molecular target: T2, Streptococcus mutans sucrose phosphorylase (GtfA, S. mutans SP), wild type, gene gtfA SEQ ID NO:5; design: fragment containing the gtfA gene coding for the Streptococcus mutans sucrose phosphorylase, was cloned into the expression vector pET15b; made in house; host or cells: E. coli BL21 (DE3); settings: compared with endogenous maize endosperm enzymes; in words; cited from earlier work
[7] = test system: OC[C@H]1O[C@@](CO)(O[C@H]2O[C@H](CO)[C@@H](O)[C@H](O)[C@H]2O)[C@@H](O)[C@@H]1O; assay: purified protein, by the assay type; settings: other: 25° C., pH 7.0, S. mutans SP
Method: as §4

[8] = substrate: OC[C@H]1O[C@@](CO)(O[C@H]2O[C@H](CO)[C@@H](O)[C@H](O)[C@H]2O)[C@@H](O)[C@@H]1O; assay: Kinetic analysis of sucrose phosphorylase Spl (continuous coupled spectrophotometric assay); assay type: biochemical, Leuconostoc mesenteroides; settings: other: 25° C., pH 7.0, L. mesenteroides SP
From the text: as §2, §3

T2 sequence (P10249 whole entry, looked up, change not shown): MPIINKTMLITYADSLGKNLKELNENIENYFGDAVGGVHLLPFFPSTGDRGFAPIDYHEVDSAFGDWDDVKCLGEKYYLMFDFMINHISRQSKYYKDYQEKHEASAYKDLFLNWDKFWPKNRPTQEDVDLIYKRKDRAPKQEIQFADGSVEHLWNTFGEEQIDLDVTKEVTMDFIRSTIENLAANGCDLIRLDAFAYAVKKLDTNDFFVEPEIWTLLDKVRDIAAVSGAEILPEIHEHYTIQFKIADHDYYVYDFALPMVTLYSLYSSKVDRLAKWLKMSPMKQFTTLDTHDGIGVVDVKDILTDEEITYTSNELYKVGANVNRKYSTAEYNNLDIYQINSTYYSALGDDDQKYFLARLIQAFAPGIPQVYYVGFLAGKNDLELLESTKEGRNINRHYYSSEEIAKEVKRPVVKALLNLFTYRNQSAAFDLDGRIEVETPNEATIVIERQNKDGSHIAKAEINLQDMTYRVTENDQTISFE
Chain of Streptococcus mutans sucrose phosphorylase (GtfA), gene gtfA SEQ ID NO:5 (P10249 whole entry, looked up, change not shown): as above

In the case of `O=P(O)(O)O` [Pi, inorganic phosphate], the Km [1] is reported as 4.88 mM, the “activity (% of optimal activity)” value [2] is reported as “about 80%” and the “activity (% of optimal activity)” value [3] is reported as 100%.

For `OC[C@H]1O[C@@](CO)(O[C@H]2O[C@H](CO)[C@@H](O)[C@H](O)[C@H]2O)[C@@H](O)[C@@H]1O` [sucrose], the “Km(sucrose) of the S. mutans enzyme lower than that of the L. mesenteroides enzyme” value [4] is given as “about 10 times lower”, the “Vmax of S. mutans sucrose phosphorylase lower than that of the enzyme from L. mesenteroides” value [4] is given as “about 9 times lower” and the Km [5] is given as 1 to 25 mM. The “Km of GftA for sucrose relative to the endogenous enzymes” value [6] was “lower Km”.

“Streptococcus mutans sucrose phosphorylase (GtfA, S. mutans SP), wild type, gene gtfA SEQ ID NO:5 (Streptococcus mutans UA159)” gave a Km [7] of 0.33 mM and a Vmax [7] of 8.5 U/mg.

B1: Leuconostoc mesenteroides sucrose phosphorylase (Spl, L. mesenteroides SP), wild type, gene spl SEQ ID NO:6 (Leuconostoc mesenteroides) (protein)
chain: T1 sequence (Q59495 1-490)
notes: fragment containing the spl gene, encoding the Leuconostoc mesenteroides sucrose phosphorylase enzyme; made in house; host or cells: E. coli BL21 (DE3)
B1 gave a Km [8] of 3.39 mM and a Vmax [8] of 71.3 U/mg.
